Measurements taken from article PMC6116672, “Discovery of (phenylureido)piperidinyl benzamides as prospective inhibitors of bacterial autolysin E from Staphylococcus aureus” (Journal of Enzyme Inhibition and Medicinal Chemistry, 2018).

Biological target: AtlE (Staphylococcus aureus, UniProt A0A0H3JT72)
Assay: SPR binding affinity to AtlE (steady state 1:1 model)
Procedure: SPR experiments were performed using a Biacore T100 (GE Healthcare) equipped with a Series S sensor chip CM5 (GE Healthcare). PBS buffer (67 mM Na2HPO4, 12.5 mM KH2PO4, 70 mM NaCl, 0,05% P20, pH 7.4) was used for immobilisation of the protein. AtlE was produced as previously described[1] and attached to the surface of the chip by amine coupling. The surface of flow cells 1 and 2 was initially activated with a 10-min pulse of a 1:1 mixture of 0.4 M 1-ethyl-3–(3-dimethylaminopropyl)-carbodiimide hydrochloride and 0.1 M N-hydroxysuccinimide, according to manufacturer recommendations. AtlE was diluted into 10 mM sodium acetate buffer, pH 5.8, to a final concentration of 100 µg/mL, and injected twice for 180 s over the second flow cell. Both flow cells were blocked with a 7-min pulse of 1.0 M ethanolamine. The final immobilisation level was about 4100 RU. Screening was run at 25 °C using PBS (67 mM Na2HPO4, 12.5 mM KH2PO4 pH 7.4, 70 mM NaCl, 0.05% P20) supplemented with 1% or 5% DMSO (Merck) as the running buffer. Selected compounds from the virtual screening studies were tested at two different concentrations: 40 and 400 µM. Each compound was injected for 1 min at a flow-rate of 30 µL/min, and the dissociation was monitored for 30 s. […] KD values were determined by fitting of the data to a 1:1 steady state binding model.

AtlE, sequence (A0A0H3JT72 entry or part of it): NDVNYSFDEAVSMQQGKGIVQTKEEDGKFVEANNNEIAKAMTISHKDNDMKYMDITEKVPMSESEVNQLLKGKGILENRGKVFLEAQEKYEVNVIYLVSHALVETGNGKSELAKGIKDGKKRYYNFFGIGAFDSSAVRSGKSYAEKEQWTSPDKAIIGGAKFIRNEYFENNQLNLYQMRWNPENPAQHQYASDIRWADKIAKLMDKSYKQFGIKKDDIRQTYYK

O=C(Nc1cccc(Cl)c1)NC1CCN(c2cccc(C(=O)N3CCc4ccccc4C3)c2)CC1 [Compound 10]
Kd: 1.9 µM
